Test system: DYT-TOR1A MEF EVs
Assay: Quantitative LC-MS/MS proteomics of EVs from drug-treated DYT-TOR1A MEF cultures (ritonavir, salubrinal)
Type: cell-based, mouse

In the case of O=C(/C=C/c1ccccc1)NC(NC(=S)Nc1cccc2cccnc12)C(Cl)(Cl)Cl (stereo not drawn) [salubrinal], the “Acaa1a (ACAA1) EV abundance Cohen's d” value (DYT + Sal/DYT, 20 μM, 24 h) is reported as −0.1738, the “Ano6 (ANO6) EV abundance Cohen's d” value (DYT + Sal/DYT, 20 μM, 24 h) is reported as 0.1593 and the “Ap1b1 (AP1B1) EV abundance Cohen's d” value (DYT + Sal/DYT, 20 μM, 24 h) is reported as −0.5479. The “Ar18b (ARL8B) EV abundance Cohen's d” value (DYT + Sal/DYT, 20 μM, 24 h) was −0.5773, the “Bzw2 (BZW2) EV abundance Cohen's d” value (DYT + Sal/DYT, 20 μM, 24 h) was 0.2815 and the “Cryab (CRYAB) EV abundance Cohen's d” value (DYT + Sal/DYT, 20 μM, 24 h) was 1.101. For the same molecule, the “DIst (DLST) EV abundance Cohen's d” value (DYT + Sal/DYT, 20 μM, 24 h) was −0.973, the “Ehd4 (EHD4) EV abundance Cohen's d” value (DYT + Sal/DYT, 20 μM, 24 h) was −0.4717 and the “Flna (FLNA) EV abundance Cohen's d” value (DYT + Sal/DYT, 20 μM, 24 h) was 0.4828. The “Fscn1 (FSCN1) EV abundance Cohen's d” value (DYT + Sal/DYT, 20 μM, 24 h) was 0.7138, the “Gart (GART) EV abundance Cohen's d” value (DYT + Sal/DYT, 20 μM, 24 h) was 0.6261 and the “Hist1h1b (H1-5) EV abundance Cohen's d” value (DYT + Sal/DYT, 20 μM, 24 h) was 0.4792. For the same molecule, the “Hnrnpc (HNRNPC) EV abundance Cohen's d” value (DYT + Sal/DYT, 20 μM, 24 h) was −0.5111, the “Ipo9 (IPO9) EV abundance Cohen's d” value (DYT + Sal/DYT, 20 μM, 24 h) was 0.1652 and the “Jam3 (JAM3) EV abundance Cohen's d” value (DYT + Sal/DYT, 20 μM, 24 h) was −0.5387. The “Lipg (LIPG) EV abundance Cohen's d” value (DYT + Sal/DYT, 20 μM, 24 h) was 0.6163, the “Lrrc59 (LRRC59) EV abundance Cohen's d” value (DYT + Sal/DYT, 20 μM, 24 h) was 0.4615 and the “Mapk3 (MAPK3) EV abundance Cohen's d” value (DYT + Sal/DYT, 20 μM, 24 h) was −0.3187. The “Mars (MARS1) EV abundance Cohen's d” value (DYT + Sal/DYT, 20 μM, 24 h) was −0.2456, the “Mrc2 (MRC2) EV abundance Cohen's d” value (DYT + Sal/DYT, 20 μM, 24 h) was 0.3301 and the “Myh9 (MYH9) EV abundance Cohen's d” value (DYT + Sal/DYT, 20 μM, 24 h) was −0.2884. The “Ndnf (NDNF) EV abundance Cohen's d” value (DYT + Sal/DYT, 20 μM, 24 h) was −0.4227, the “Pcmt1 (PCMT1) EV abundance Cohen's d” value (DYT + Sal/DYT, 20 μM, 24 h) was −0.2746 and the “Pi4ka (PI4KA) EV abundance Cohen's d” value (DYT + Sal/DYT, 20 μM, 24 h) was 0.7656. For the same molecule, the “Pitpnb (PITPNB) EV abundance Cohen's d” value (DYT + Sal/DYT, 20 μM, 24 h) was 0.6644, the “Prpsap2 (PRPSAP2) EV abundance Cohen's d” value (DYT + Sal/DYT, 20 μM, 24 h) was −1.257 and the “Psmc5 (PSMC5) EV abundance Cohen's d” value (DYT + Sal/DYT, 20 μM, 24 h) was 1.22. For the same molecule, the “Psmd12 (PSMD12) EV abundance Cohen's d” value (DYT + Sal/DYT, 20 μM, 24 h) was 1.234, the “Psme4 (PSME4) EV abundance Cohen's d” value (DYT + Sal/DYT, 20 μM, 24 h) was −0.3917 and the “Ptma (PTMA) EV abundance Cohen's d” value (DYT + Sal/DYT, 20 μM, 24 h) was 0.9729. The “Rap2b (RAP2B) EV abundance Cohen's d” value (DYT + Sal/DYT, 20 μM, 24 h) was −0.249, the “Rbm3 (RBM3) EV abundance Cohen's d” value (DYT + Sal/DYT, 20 μM, 24 h) was 0.2607 and the “Rhoa (RHOA) EV abundance Cohen's d” value (DYT + Sal/DYT, 20 μM, 24 h) was −0.6572. The “Rpl10 (RPL10) EV abundance Cohen's d” value (DYT + Sal/DYT, 20 μM, 24 h) was −0.3597, the “Rpl13a (RPL13A) EV abundance Cohen's d” value (DYT + Sal/DYT, 20 μM, 24 h) was −0.4797 and the “Rps13 (RPS13) EV abundance Cohen's d” value (DYT + Sal/DYT, 20 μM, 24 h) was −0.1409. For the same molecule, the “Sec31a (SEC31A) EV abundance Cohen's d” value (DYT + Sal/DYT, 20 μM, 24 h) was −0.2355, the “Slc2a1 (SLC2A1) EV abundance Cohen's d” value (DYT + Sal/DYT, 20 μM, 24 h) was −0.3172 and the “Stom (STOM) EV abundance Cohen's d” value (DYT + Sal/DYT, 20 μM, 24 h) was −0.4048. The “Tardbp (TARDBP) EV abundance Cohen's d” value (DYT + Sal/DYT, 20 μM, 24 h) was 0.4522, the “Tgfb2 (TGFB2) EV abundance Cohen's d” value (DYT + Sal/DYT, 20 μM, 24 h) was −0.3293 and the “Tln1 (TLN1) EV abundance Cohen's d” value (DYT + Sal/DYT, 20 μM, 24 h) was 0.5665. For the same molecule, the “Tln2 (TLN2) EV abundance Cohen's d” value (DYT + Sal/DYT, 20 μM, 24 h) was 0.5488, the “Tubb1 (TUBB1) EV abundance Cohen's d” value (DYT + Sal/DYT, 20 μM, 24 h) was 0.246 and the “Usp7 (USP7) EV abundance Cohen's d” value (DYT + Sal/DYT, 20 μM, 24 h) was 1.229. The “Wdr26 (WDR26) EV abundance Cohen's d” value (DYT + Sal/DYT, 20 μM, 24 h) was −0.1895, the “Zyx (ZYX) EV abundance Cohen's d” value (DYT + Sal/DYT, 20 μM, 24 h) was −0.5814 and the “Pearson r between ritonavir and salubrinal effects on putative DYT-TOR1A biomarker proteins” value (DYT-TOR1A MEF EVs, 20 μM each, 24 h) was 0.47. The “Acaa1a (ACAA1) EV abundance Cohen's d” value (DYT/DYT + Sal, 20 μM, 24 h) was −0.1738, the “Ano6 (ANO6) EV abundance Cohen's d” value (DYT/DYT + Sal, 20 μM, 24 h) was 0.1593 and the “Ap1b1 (AP1B1) EV abundance Cohen's d” value (DYT/DYT + Sal, 20 μM, 24 h) was −0.5479. For the same molecule, the “Arl8b (ARL8B) EV abundance Cohen's d” value (DYT/DYT + Sal, 20 μM, 24 h) was −0.5773, the “Bzw2 (BZW2) EV abundance Cohen's d” value (DYT/DYT + Sal, 20 μM, 24 h) was 0.2815 and the “Cryab (CRYAB) EV abundance Cohen's d” value (DYT/DYT + Sal, 20 μM, 24 h) was 1.101. For the same molecule, the “DIst (DLST) EV abundance Cohen's d” value (DYT/DYT + Sal, 20 μM, 24 h) was −0.973, the “Ehd4 (EHD4) EV abundance Cohen's d” value (DYT/DYT + Sal, 20 μM, 24 h) was −0.4717 and the “Flna (FLNA) EV abundance Cohen's d” value (DYT/DYT + Sal, 20 μM, 24 h) was 0.4828. For the same molecule, the “Fscn1 (FSCN1) EV abundance Cohen's d” value (DYT/DYT + Sal, 20 μM, 24 h) was 0.7138, the “Gart (GART) EV abundance Cohen's d” value (DYT/DYT + Sal, 20 μM, 24 h) was 0.6261 and the “Hist1h1b (H1-5) EV abundance Cohen's d” value (DYT/DYT + Sal, 20 μM, 24 h) was 0.4792. The “Hnrnpc (HNRNPC) EV abundance Cohen's d” value (DYT/DYT + Sal, 20 μM, 24 h) was −0.5111, the “Ipo9 (IPO9) EV abundance Cohen's d” value (DYT/DYT + Sal, 20 μM, 24 h) was 0.1652 and the “Jam3 (JAM3) EV abundance Cohen's d” value (DYT/DYT + Sal, 20 μM, 24 h) was −0.5387. For the same molecule, the “Lipg (LIPG) EV abundance Cohen's d” value (DYT/DYT + Sal, 20 μM, 24 h) was 0.6163, the “Lrrc59 (LRRC59) EV abundance Cohen's d” value (DYT/DYT + Sal, 20 μM, 24 h) was 0.4615 and the “Mapk3 (MAPK3) EV abundance Cohen's d” value (DYT/DYT + Sal, 20 μM, 24 h) was −0.3187. For the same molecule, the “Mars (MARS1) EV abundance Cohen's d” value (DYT/DYT + Sal, 20 μM, 24 h) was −0.2456, the “Mrc2 (MRC2) EV abundance Cohen's d” value (DYT/DYT + Sal, 20 μM, 24 h) was 0.3301 and the “Myh9 (MYH9) EV abundance Cohen's d” value (DYT/DYT + Sal, 20 μM, 24 h) was −0.2884. The “Ndnf (NDNF) EV abundance Cohen's d” value (DYT/DYT + Sal, 20 μM, 24 h) was −0.4227, the “Pcmt1 (PCMT1) EV abundance Cohen's d” value (DYT/DYT + Sal, 20 μM, 24 h) was −0.2746 and the “Pi4ka (PI4KA) EV abundance Cohen's d” value (DYT/DYT + Sal, 20 μM, 24 h) was 0.7656. For the same molecule, the “Pitpnb (PITPNB) EV abundance Cohen's d” value (DYT/DYT + Sal, 20 μM, 24 h) was 0.6644, the “Prpsap2 (PRPSAP2) EV abundance Cohen's d” value (DYT/DYT + Sal, 20 μM, 24 h) was −1.257 and the “Psmc5 (PSMC5) EV abundance Cohen's d” value (DYT/DYT + Sal, 20 μM, 24 h) was 1.22. The “Psmd12 (PSMD12) EV abundance Cohen's d” value (DYT/DYT + Sal, 20 μM, 24 h) was 1.234, the “Psme4 (PSME4) EV abundance Cohen's d” value (DYT/DYT + Sal, 20 μM, 24 h) was −0.3917 and the “Ptma (PTMA) EV abundance Cohen's d” value (DYT/DYT + Sal, 20 μM, 24 h) was 0.9729. The “Rap2b (RAP2B) EV abundance Cohen's d” value (DYT/DYT + Sal, 20 μM, 24 h) was −0.249, the “Rbm3 (RBM3) EV abundance Cohen's d” value (DYT/DYT + Sal, 20 μM, 24 h) was 0.2607 and the “Rhoa (RHOA) EV abundance Cohen's d” value (DYT/DYT + Sal, 20 μM, 24 h) was −0.6572. The “Rpl10 (RPL10) EV abundance Cohen's d” value (DYT/DYT + Sal, 20 μM, 24 h) was −0.3597, the “Rpl13a (RPL13A) EV abundance Cohen's d” value (DYT/DYT + Sal, 20 μM, 24 h) was −0.4797 and the “Rps13 (RPS13) EV abundance Cohen's d” value (DYT/DYT + Sal, 20 μM, 24 h) was −0.1409. The “Sec31a (SEC31A) EV abundance Cohen's d” value (DYT/DYT + Sal, 20 μM, 24 h) was −0.2355, the “Slc2a1 (SLC2A1) EV abundance Cohen's d” value (DYT/DYT + Sal, 20 μM, 24 h) was −0.3172 and the “Stom (STOM) EV abundance Cohen's d” value (DYT/DYT + Sal, 20 μM, 24 h) was −0.4048. The “Tardbp (TARDBP) EV abundance Cohen's d” value (DYT/DYT + Sal, 20 μM, 24 h) was 0.4522, the “Tgfb2 (TGFB2) EV abundance Cohen's d” value (DYT/DYT + Sal, 20 μM, 24 h) was −0.3293 and the “Tln1 (TLN1) EV abundance Cohen's d” value (DYT/DYT + Sal, 20 μM, 24 h) was 0.5665. For the same molecule, the “Tln2 (TLN2) EV abundance Cohen's d” value (DYT/DYT + Sal, 20 μM, 24 h) was 0.5488, the “Tubb1 (TUBB1) EV abundance Cohen's d” value (DYT/DYT + Sal, 20 μM, 24 h) was 0.246 and the “Usp7 (USP7) EV abundance Cohen's d” value (DYT/DYT + Sal, 20 μM, 24 h) was 1.229. For the same molecule, the “Wdr26 (WDR26) EV abundance Cohen's d” value (DYT/DYT + Sal, 20 μM, 24 h) was −0.1895, the “Zyx (ZYX) EV abundance Cohen's d” value (DYT/DYT + Sal, 20 μM, 24 h) was −0.5814 and the “proteins reduced in both mouse and human EVs whose abundance is modulated toward correction in DYT1 cells (and toward DYT1-like by ISRIB in WT cells)” value (salubrinal) was 4 of the 7.

From patent publication US20260266848A1, “COMPOSITIONS AND METHODS FOR DIAGNOSING AND TREATING DYSTONIA” (Duke University, priority 2023, published 2026)
